What is called Km is the substrate concentration at which the rate is half of its maximum.

Our source for the Km values is publication PMC11898752, “Functional Characterization of β-Glucuronidase Genes Involved in Baicalein Biosynthesis from Scutellaria baicalensis Based on Transcriptome Analysis” (International Journal of Molecular Sciences, 2025).

One assay concerns T1, GUS1.
T1 construct: full-length ORF in pEASY-Blunt E1, His-tag purified from E. coli BL21(DE3), about 60 kDa on SDS-PAGE
Nature of the assay: HPLC of baicalein formed, Hanes-Woolf plot. The format is biochemical, Scutellaria baicalensis. To be noted: PBS pH 9, 45 °C, 40 min.

The next assay relates to T2, GUS2.
T2 construct: full-length ORF in pEASY-Blunt E1, His-tag purified from E. coli BL21(DE3), about 55 kDa on SDS-PAGE
Nature of the assay: HPLC of baicalein formed, Hanes-Woolf plot. The format is biochemical, Scutellaria baicalensis. The following applies: PBS pH 9, 45 °C, 40 min.

Molecules are shown by their SMILES.

With `O=C(O)[C@H]1O[C@@H](Oc2cc3oc(-c4ccccc4)cc(=O)c3c(O)c2O)[C@H](O)[C@@H](O)[C@@H]1O` [baicalin], the Km in the assay on GUS1 was 0.2826 mg/mL; in the assay with GUS2, 0.2732 mg/mL.
